The record followed here is patent US20240336632A1, “NOVEL COMPOUND COMPRISING ESTER GROUP AND USES THEREOF” (priority 2021, published 2024).

The test system of data set [1] is orthotopic PANC-1/Luc+ pancreatic tumor BALB/c nude mice. Kind of data set: PET/CT imaging of orthotopic pancreatic tumor model. The following applies: L4 at 24 h post-injection; FDG at 1 h post-injection, same mouse. The format is in vivo. The procedure:
The establishment of the tumor in the orthotopic pancreatic tumor models was confirmed at 13 days post-inoculation of PANC-1/Luc+ cells into the pancreas tail with bioluminescence imaging using D-luciferin (60 mg/kg). The next day, [^18F]FDG-PET/CT (FDG: fluorodeoxyglucose) imaging was performed at 1 h post-injection (7.4 MBq/mouse) for 20 min.
Two days after [^18F]FDG imaging, [^124I]L4 (6.3-9.3 MBq in 200 μL PBS) was administered into the tail vein of the same mouse and PET/CT images were acquired at 1, 4, and 24 h post-injection.

Data set [2] relates to normal BALB/c mice. Kind of data set: Urinary and fecal excretion of radioactive metabolites. The format is in vivo, mouse.
Data set [3] in a line: Ex vivo cleavage in liver homogenate. The procedure: Ex vivo studies to determine the cleavage rates of the examined radiotracers in different organs were performed using the homogenates of mouse tissues collected from CT26 tumor models. Liver, spleen, and tumor tissues were collected and weighted. After the addition of ice-cold PBS solution at a ratio of 1:1 (w/w), the tissues were homogenized with a homogenizer (Ultra-Turrax, IKA, Selangor, Malaysia) under ice-cold conditions. The crude homogenate was then centrifuged at 2,000 g, and the sediment was discarded. Each supernatant (300 μL), referred to as tissue homogenate, was immediately mixed with each radiotracer (3.7 MBq) dissolved in PBS with 10% DMSO. The reaction was then performed upon shaking at 550 rpm at 37° C., and the hydrolysis rate of each radiotracer was measured by radio-TLC for up to 24 h. […] Urine and fecal samples were collected separately at 0.5, 1, 2, 4, 8, 16, and 24 h post-injection, and their radioactivity was measured with a dose calibrator (CRC-Ultra; Capintec, Florham Park, NJ, USA). […] The same urine sample was further analyzed by HPLC [Luna C8 column (4.6×50 mm, 5 μm), 0.1% TFA/H2O (solventA), and 0.1% TFA/acetonitrile (solvent B)] using a gradient of 10-100% B in 5 min and 10% B for 27 min, which continued for up to 45 min at a flow rate of 1 mL/min.

Data set [4] can be described thus: In vitro metabolism with mouse liver S9 fraction. Type of data set: in vitro ADME. As to conditions: 4 h incubation. On the procedure:
(§1) For the in vitro metabolic studies with mouse liver S9 fraction and microsome, 1-3 (3.7 MBq) were dissolved in PBS with 10% DMSO and mixed with the mouse liver S9 fraction (0.2 mg in 10 μL) or the microsome (0.2 mg in 10 μL) with NADPH (0.25 mM). The reaction was performed upon shaking at 550 rpm at 37° C. The hydrolysis rate of each radiotracer was measured by radio-TLC for up to 24 h.

Data set [5] is described as follows: Ex vivo cleavage in spleen homogenate. As to conditions: 4 h and 24 h. Type of data set: in vitro ADME, mouse. An excerpt: Liver, spleen, and tumor tissues were collected and weighted.
Data set [6] is described as follows: In vitro metabolism with mouse liver microsome. Type of data set: in vitro ADME. The following applies: 4 h incubation. The procedure: as §1
Background: Microsomes from liver hold many membrane-bound enzymes, among them those of drug oxidation.

Data set [7] can be described thus: Lipophilicity (log P) of the radiotracer. The format is physicochemical.
The subject of data set [8] is porcine liver esterase. Kind of data set: Esterase enzymatic assay (radio-TLC cleavage). The format is in vitro ADME. The following applies: 37 C. On the procedure:
The in vitro metabolism studies were performed using 25 U/mL solutions of porcine liver esterase in PBS. [^131I]HIB (1), [^131I]IPH (2), or [^131I]HIB-ether (3) (3.7 MBq each) was also dissolved in PBS with 10% DMSO. Esterase (2.5 U) was then added to each radiotracer solution, and the solution was gently shaken at 37° C.
With these hypotheses in mind, we performed systematic mechanistic studies. First, we carried out an esterase enzymatic assay. All three radiotracers, [^131I]HIB, [^131I]IPH, and [^131I]HIB-ether, were incubated separately with esterase (Sigma Aldrich, St. Louis, MO, USA) at 37° C. in a 10% DMSO/PBS mixture, and the progress of the reactions was monitored for 24 h by radio-TLC (FIG. 3A).

Turning to fluorodeoxyglucose [[^18F]FDG], in data set [1], the “tumor detection in PET image” value is reported as “the tumor could barely be detected”.

On to `CCCCCCCCCCCCCCCCOC(=O)c1ccc([131I])cc1` [[^131I]HIB], for which, in data set [2] (after i.v. [131I]HIB-liposome), the “radioactivity in the feces relative to that in urine” value is “less than 5%”. In data set [2] (urine 3 h post-injection, radio-TLC and HPLC), the “metabolite found in urine” value is 4-[^131I]iodobenzoic acid. For the same molecule, the cleavage was approximately 75% in data set [3] (4 h) and approximately 88% in data set [3] (24 h). For the same molecule, the cleavage percentage in data set [4] is 89.7%; in data set [6], 85.3%. Moreover, the “cleavage rate lower than in the liver” value in data set [5] was approximately 18%. The “log P” value in data set [7] came to 2.19±0.04.

Regarding `CCCCCCCCCCCCCCCCC(=O)Oc1ccc([131I])cc1` [[^131I]IPH, 4-[^124/131I]iodophenyl heptadecanoate], the cleavage in data set [3] (4 h) is approximately 75%; in data set [3] (24 h), approximately 88%. Further, the cleavage percentage is 91.3% in data set [4] and 87.3% in data set [6]. Also, in data set [5], the “cleavage rate lower than in the liver” value is on record as approximately 18%.

Regarding `CCCCCCCCCCCCCCCCOc1ccc(I)cc1` [[^131I]HIB-ether, 1-(hexadecyloxy)-4-[^124/131I]iodobenzene], the cleavage in data set [3] (4 h) is 23%; in data set [3] (24 h), 25%. In addition, the cleavage percentage is listed as 19.3% in data set [4], 15.9% in data set [8] (4 h), 20.3% in data set [8] (24 h) and 16.0% in data set [6].

The term log P denotes the decadic logarithm of the partition coefficient of the neutral form, usually between octanol and water. Higher therefore signals a more lipophilic compound.
